Usually IC50 stands for the midpoint of a concentration-inhibition curve.

Experiment [1] concerns the target androgen receptor mutant W741C (Homo sapiens (Human), UniProt P10275, W742C). In words: Transactivation assay for the androgen receptor mutant W741C (transfected PC-3 cells). The class given is cell-based. The following applies: in the presence of 1×10^−10 M R1881, 24 hours. Here is the method:
PC-3 cells (Kaighn et al., Invest. Urol. 17: 16-23, 1979) were plated out at a density of 10000 cells per well of a 96-well cell culture plate in RMPI 1640 medium (F1235, Biochrom AG, Berlin, Germany), which contained activated charcoal-treated calf serum (FCS Serum Gold, PAA Laboratories) at a concentration of 5% (v/v). On the next day the cells were transiently transfected with the pSG5-vector (#216201 Stratagene), which contained the sequence of the androgen receptor mutant W741C (Haapala et al., Lab Invest. 81(12): 1647-51, 2001), and with a reporter plasmid based on pGL4.14 (#E6691, Promega) with the luciferase-gene (from Photinus pyralis) under the control of the MMTV promoter (Cato et al., EMBO J. 6: 363-8, 1987). The cells were treated with the test substances in concentrations from 1×10^−8 to 1×10^−10 M in the presence of 1×10^−10 M R1881 and were incubated overnight at 37° C. and 5% CO2. After 24 hours, 100 μl of Steady Glo Lysis and Detection reagent (E2550, Promega) was added per well and the luminescence was read in a Victor3 Luminometer (PerkinElmer) for 1 second per well. The luminescence values obtained were normalized, wherein 100% corresponded to the effect of the unstimulated control (without R1881), and 0% corresponded to the effect of the stimulated control (R1881 plus DMSO instead of test substance). The IC50 value was determined by regression analysis based on a four-parameter equation (minimum, maximum, IC50, Hill coefficient; Y=Max+(Min−Max)/(1+(X/IC50)^Hill)).

The target in experiment [2] is human androgen receptor (full length, wild-type form) (Homo sapiens (Human), UniProt P10275). In words: Transactivation assay for the wild-type androgen receptor (PC-3 cells, MMTV-luciferase reporter). The conditions noted are these: in the presence of R1881, 16 hours. It counts as cell-based. The source says:
For determining the androgen receptor-dependent transcription, a cellular assay system was used, consisting of PC-3 cells (Kaighn et al., Invest. Urol. 17: 16-23, 1979), which express the human androgen receptor stably and recombinantly (full length, wild-type form, see Swiss-Prot Acc. No. P10275, Entry Version 159, Sequence Version 2). In addition, these PC3 cells contain a stably integrated reporter gene plasmid, which is based on the commercially available plasmid pGL4.14 (#E6691, Promega Corporation, Madison, Wis., USA) and contains the luciferase gene from the American firefly (Photinus pyralis) under the control of the MMTV promoter (Cato et al., EMBO J. 6: 363-368, 1987). These cells were propagated in routine cell culture at 37° C. and 5% CO2 in a medium containing 90% RPMI 1640 (Invitrogen GmbH, Darmstadt, Germany), 100 U penicillin, 100 μg/ml streptomycin (Invitrogen), 4 mM L-glutamine (Invitrogen), 10% fetal calf serum (FCS Serum Gold, PAA Laboratories GmbH, Cölbe, Germany), 600 μg/ml Geneticin (G418-sulphate, Invitrogen) and 10 μg/ml puromycin (Sigma Aldrich GmbH, Germany).
For carrying out the transactivation assays, approx. 1000 cells per well were plated out in a 384-well cell culture plate in a medium that contained activated charcoal-treated calf serum (FCS Serum Gold, PAA Laboratories) at a concentration of 5% (v/v). The test substances were added in a concentration series from 5.12×10^−12 to 1×10^−5 M in the presence of […] R1881 (methyltrienolone). The test plates were incubated overnight at 37° C. and 5% CO2. After 16 hours, 15 μl of Steady Glo Lysis and Detection reagent (E2550, Promega Corporation, Madison, Wis., USA) was added per well and the luminescence was read in a Topcount Luminometer (PerkinElmer, Waltham, Mass., USA) for 4 seconds per well. The luminescence values obtained were normalized, wherein 100% corresponded to the effect of the unstimulated control (without R1881), and 0% corresponded to the effect of the stimulated control (R1881 plus DMSO instead of test substance). The IC50 value was determined by regression analysis based on a four-parameter equation (minimum, maximum, IC50, Hill coefficient; Y=Max+(Min−Max)/(1+(X/IC50)^Hill)).
On the technique in general: In a reporter assay the amount or activity of a reporter protein is the signal.

Structures are written as SMILES.

human androgen receptor (full length, wild-type form), sequence (P10275 whole entry): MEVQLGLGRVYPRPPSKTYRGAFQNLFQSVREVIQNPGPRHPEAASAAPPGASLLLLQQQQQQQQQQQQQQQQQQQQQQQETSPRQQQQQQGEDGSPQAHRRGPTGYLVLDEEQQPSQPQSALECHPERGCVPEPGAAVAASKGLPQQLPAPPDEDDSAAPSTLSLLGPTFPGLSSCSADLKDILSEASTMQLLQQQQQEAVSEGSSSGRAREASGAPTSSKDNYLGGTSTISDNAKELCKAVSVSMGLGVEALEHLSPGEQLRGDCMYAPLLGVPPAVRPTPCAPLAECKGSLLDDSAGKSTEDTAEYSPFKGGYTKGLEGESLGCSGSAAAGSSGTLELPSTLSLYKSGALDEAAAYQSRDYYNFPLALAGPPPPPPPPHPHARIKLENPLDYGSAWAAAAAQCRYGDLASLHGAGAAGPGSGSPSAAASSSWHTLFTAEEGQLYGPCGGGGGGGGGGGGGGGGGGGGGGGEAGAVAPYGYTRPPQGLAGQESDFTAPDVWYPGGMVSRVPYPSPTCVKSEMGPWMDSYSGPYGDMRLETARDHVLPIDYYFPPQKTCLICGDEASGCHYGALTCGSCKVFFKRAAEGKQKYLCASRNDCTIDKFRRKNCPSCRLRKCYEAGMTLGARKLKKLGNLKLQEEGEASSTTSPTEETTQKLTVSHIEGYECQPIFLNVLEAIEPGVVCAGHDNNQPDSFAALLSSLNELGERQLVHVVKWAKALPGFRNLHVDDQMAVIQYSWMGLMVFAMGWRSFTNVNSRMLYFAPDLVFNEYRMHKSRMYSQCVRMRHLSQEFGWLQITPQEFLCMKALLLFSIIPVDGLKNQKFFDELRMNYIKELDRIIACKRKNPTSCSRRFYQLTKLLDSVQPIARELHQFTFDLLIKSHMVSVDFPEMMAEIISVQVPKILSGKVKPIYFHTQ
androgen receptor mutant W741C, sequence (P10275 whole entry W742C): as the sequence (P10275 whole entry) above, with W742C counted along it

Regarding `N#Cc1cccc2c(O[C@H]3CC[C@H](NC(=O)c4cccc(F)c4)CC3)ccnc12` [Example 23, N-{trans-4-[(8-cyanoquinolin-4-yl)oxy]cyclohexyl}-3-fluorobenzamide], the IC50 in experiment [1] was determined as 30 nM; in experiment [2] it was 52 nM.
